Reference: PubChem BioAssay AID1963838 (Molecular Pharmacology Branch, DTP, NCI, 2024)
pIC50: −log10 of the molar value.

Tested on: 855422-203-R-J1-PDC complex spheroid viability
Experiment: Anticancer human tumor 855422-203-R-J1-PDC patient-derived bladder carcinoma cell line growth inhibition [POLQ]
Conditions: for pIC50: curve of first compound; for viability, T/C: stronger effect = lower value; active means viability on the fitted dose curve at most 10% of control; inactive means the rest
How it was run: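 Three-cell-type spheroids modelling solid tumor plus stroma served as the readout system; POL inhibitors were tested individually and in combination, concentration ranges set by clinical Cmax where known.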

[1] = second compound 0.0316 µM, first compound 0.0316 µM
[2] = second compound 0.0316 µM, first compound 0.1 µM
[3] = second compound 0.0316 µM, first compound 0.316 µM
[4] = second compound 0.0316 µM, first compound 1 µM
[5] = second compound 0.0316 µM, first compound 3.16 µM
[6] = second compound 0.0316 µM, first compound 10 µM
[7] = second compound 0.1 µM, first compound 0.0316 µM
[8] = second compound 0.1 µM, first compound 0.1 µM
[9] = second compound 0.1 µM, first compound 0.316 µM
[10] = second compound 0.1 µM, first compound 1 µM
[11] = second compound 0.1 µM, first compound 3.16 µM
[12] = second compound 0.1 µM, first compound 10 µM
[13] = second compound 0.316 µM, first compound 0.0316 µM
[14] = second compound 0.316 µM, first compound 0.1 µM
[15] = second compound 0.316 µM, first compound 0.316 µM
[16] = second compound 0.316 µM, first compound 1 µM
[17] = second compound 0.316 µM, first compound 3.16 µM
[18] = second compound 0.316 µM, first compound 10 µM
[19] = second compound 1 µM, first compound 0.0316 µM
[20] = second compound 1 µM, first compound 0.1 µM
[21] = second compound 1 µM, first compound 0.316 µM
[22] = second compound 1 µM, first compound 1 µM
[23] = second compound 1 µM, first compound 3.16 µM
[24] = second compound 1 µM, first compound 10 µM
[25] = second compound 3.16 µM, first compound 0.0316 µM
[26] = second compound 3.16 µM, first compound 0.1 µM
[27] = second compound 3.16 µM, first compound 0.316 µM
[28] = second compound 3.16 µM, first compound 1 µM
[29] = second compound 3.16 µM, first compound 3.16 µM
[30] = second compound 3.16 µM, first compound 10 µM
[31] = second compound 10 µM, first compound 0.0316 µM
[32] = second compound 10 µM, first compound 0.1 µM
[33] = second compound 10 µM, first compound 0.316 µM
[34] = second compound 10 µM, first compound 1 µM
[35] = second compound 10 µM, first compound 3.16 µM
[36] = second compound 10 µM, first compound 10 µM
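Further: spheroids exposed to compounds for seven days before readout.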

COc1cc(C2c3cc4c(cc3C(OC3OC5COC(C)OC5C(O)C3O)C3COC(=O)C23)OCO4)cc(OC)c1O (stereo not drawn) + COC1C(OC(N)=O)C(O)C(Oc2ccc3c(O)c(NC(=O)c4ccc(O)c(CC=C(C)C)c4)c(=O)oc3c2C)OC1(C)C
6.64: pIC50 (second compound 0.316 µM)
6.62: pIC50 (second compound 0.0316 µM)
6.63: pIC50 (second compound 1 µM)
6.61: pIC50 (second compound 0.1 µM)
6.67: pIC50 (second compound 10 µM)
active: viability, T/C [4] 11.9% | viability, T/C [5] 8.5% | viability, T/C [6] 5.28% | viability, T/C [10] 12.8% | viability, T/C [11] 7.81% | viability, T/C [12] 4.05% | viability, T/C [16] 13.3% | viability, T/C [17] 8.9% | viability, T/C [18] 5.06% | viability, T/C [22] 11.6% | viability, T/C [23] 7.12% | viability, T/C [24] 4.08% | viability, T/C [29] 8.6% | viability, T/C [30] 4.59% | viability, T/C [34] 12.9% | viability, T/C [35] 7.13% | viability, T/C [36] 5.19%
inactive: viability, T/C [1] 99.4% | viability, T/C [2] 99.7% | viability, T/C [3] 35.1% | viability, T/C [7] 95.2% | viability, T/C [8] 102% | viability, T/C [9] 36.2% | viability, T/C [13] 99.2% | viability, T/C [14] 103% | viability, T/C [15] 29.4% | viability, T/C [19] 107% | viability, T/C [20] 99.7% | viability, T/C [21] 32.2% | viability, T/C [25] 128% | viability, T/C [26] 85.9% | viability, T/C [27] 29.5% | viability, T/C [28] 12.7% | viability, T/C [31] 111% | viability, T/C [32] 88.8% | viability, T/C [33] 29.9%
6.68: pIC50 (second compound 3.16 µM)

COc1cccc(OCCCN)c1-c1cc(Nc2cnc(C#N)cn2)n[nH]1 + COC1C(OC(N)=O)C(O)C(Oc2ccc3c(O)c(NC(=O)c4ccc(O)c(CC=C(C)C)c4)c(=O)oc3c2C)OC1(C)C
7.79: pIC50 (second compound 3.16 µM)
7.71: pIC50 (second compound 0.0316 µM)
inactive: viability, T/C (second compound 0.0316 µM, first compound 0.00316 µM) 98.3% | viability, T/C (second compound 0.0316 µM, first compound 0.01 µM) 90% | viability, T/C [1] 20.3% | viability, T/C (second compound 0.1 µM, first compound 0.00316 µM) 102% | viability, T/C (second compound 0.1 µM, first compound 0.01 µM) 69% | viability, T/C [7] 22.4% | viability, T/C (second compound 0.316 µM, first compound 0.00316 µM) 109% | viability, T/C (second compound 0.316 µM, first compound 0.01 µM) 101% | viability, T/C [13] 16.4% | viability, T/C (second compound 1 µM, first compound 0.00316 µM) 118% | viability, T/C (second compound 1 µM, first compound 0.01 µM) 75.1% | viability, T/C [19] 13.6% | viability, T/C (second compound 3.16 µM, first compound 0.00316 µM) 109% | viability, T/C (second compound 3.16 µM, first compound 0.01 µM) 74.9% | viability, T/C [25] 14.5% | viability, T/C (second compound 10 µM, first compound 0.00316 µM) 107% | viability, T/C (second compound 10 µM, first compound 0.01 µM) 74.2% | viability, T/C [31] 15%
active: viability, T/C [2] 8.97% | viability, T/C [3] 6.7% | viability, T/C [4] 6.14% | viability, T/C [8] 8.69% | viability, T/C [9] 5.66% | viability, T/C [10] 4.71% | viability, T/C [14] 7.64% | viability, T/C [15] 6.06% | viability, T/C [16] 5.18% | viability, T/C [20] 6.95% | viability, T/C [21] 5.24% | viability, T/C [22] 5.12% | viability, T/C [26] 7.77% | viability, T/C [27] 5.93% | viability, T/C [28] 8.32% | viability, T/C [32] 8.46% | viability, T/C [33] 7.19% | viability, T/C [34] 4.54%
7.80: pIC50 (second compound 0.1 µM) | pIC50 (second compound 1 µM) | pIC50 (second compound 10 µM)
7.70: pIC50 (second compound 0.316 µM)

Nc1ccn(C2OC(CO)C(O)C2(F)F)c(=O)n1 (stereo not drawn) + COC1C(OC(N)=O)C(O)C(Oc2ccc3c(O)c(NC(=O)c4ccc(O)c(CC=C(C)C)c4)c(=O)oc3c2C)OC1(C)C
7.17: pIC50 (second compound 3.16 µM)
7.18: pIC50 (second compound 0.316 µM) | pIC50 (second compound 10 µM)
active: viability, T/C [4] 9.46% | viability, T/C [5] 7.57% | viability, T/C [6] 6.26% | viability, T/C [10] 8.44% | viability, T/C [11] 7.41% | viability, T/C [12] 6.76% | viability, T/C [16] 8.38% | viability, T/C [17] 8.35% | viability, T/C [18] 5.06% | viability, T/C [22] 9.87% | viability, T/C [23] 6.93% | viability, T/C [24] 6.4% | viability, T/C [27] 9.1% | viability, T/C [28] 9.44% | viability, T/C [29] 10.2% | viability, T/C [30] 6.39% | viability, T/C [34] 11.4% | viability, T/C [35] 7.42% | viability, T/C [36] 5.66%
7.32: pIC50 (second compound 0.1 µM)
7.36: pIC50 (second compound 0.0316 µM)
inactive: viability, T/C [1] 57.1% | viability, T/C [2] 31.7% | viability, T/C [3] 11.5% | viability, T/C [7] 60.2% | viability, T/C [8] 32.2% | viability, T/C [9] 10.7% | viability, T/C [13] 78.4% | viability, T/C [14] 33.5% | viability, T/C [15] 11.3% | viability, T/C [19] 72.4% | viability, T/C [20] 31% | viability, T/C [21] 12.2% | viability, T/C [25] 75.4% | viability, T/C [26] 37.3% | viability, T/C [31] 72.8% | viability, T/C [32] 37% | viability, T/C [33] 11.5%
7.23: pIC50 (second compound 1 µM)

O=C(c1cc(Cc2n[nH]c(=O)c3ccccc23)ccc1F)N1CCN(C(=O)C2CC2)CC1 + COC1C(OC(N)=O)C(O)C(Oc2ccc3c(O)c(NC(=O)c4ccc(O)c(CC=C(C)C)c4)c(=O)oc3c2C)OC1(C)C
< 5.00: pIC50 (second compound 0.0316 µM) | pIC50 (second compound 0.1 µM) | pIC50 (second compound 0.316 µM) | pIC50 (second compound 1 µM) | pIC50 (second compound 3.16 µM) | pIC50 (second compound 10 µM)
inactive: viability, T/C [1] 107% | viability, T/C [2] 107% | viability, T/C [3] 122% | viability, T/C [4] 90.8% | viability, T/C [5] 95.6% | viability, T/C [6] 78.8% | viability, T/C [7] 93.3% | viability, T/C [8] 111% | viability, T/C [9] 109% | viability, T/C [10] 104% | viability, T/C [11] 93.8% | viability, T/C [12] 83.7% | viability, T/C [13] 95.9% | viability, T/C [14] 105% | viability, T/C [15] 102% | viability, T/C [16] 114% | viability, T/C [17] 101% | viability, T/C [18] 67.2% | viability, T/C [19] 108% | viability, T/C [20] 101% | viability, T/C [21] 95.5% | viability, T/C [22] 118% | viability, T/C [23] 95.8% | viability, T/C [24] 66.9% | viability, T/C [25] 111% | viability, T/C [26] 90.8% | viability, T/C [27] 106% | viability, T/C [28] 105% | viability, T/C [29] 91.2% | viability, T/C [30] 68.1% | viability, T/C [31] 104% | viability, T/C [32] 111% | viability, T/C [33] 106% | viability, T/C [34] 96.7% | viability, T/C [35] 103% | viability, T/C [36] 60.2%
